Data published in US20050014696A1, “Additive cytoprotective effects of two bioactive regions of pro-opiomelanocortin hormone” (priority 2001, published 2005).

Test system: 96% ethanol induced gastric lesions
Assay: 96% ethanol induced gastric lesions cytoprotection model
Format: in vivo, male Wistar rats
Conditions: 8 animals, mean±standard deviation, saline control 255.5±78.1, p<0.05 compared to controls
Protocol: Bioactive peptide fragments SYSMEHFRWGKPV and YGGFM were tested individually and in combination, by means of the standard cytoprotection model of the 96% ethanol induced gastric lesions in male Wistar rats (6, 7). In the control group of 8 animals treated with physiological saline the area of gastric lesions was 255.5±78.1 mm^2 (mean±standard deviation, FIG. 1) (7). In the group of 8 animals treated with the combination of peptides SYSMEHFRWGKPV (1 mg/kg) and YGGFM (10 mg/kg) the area of gastric lesions was 0.3±0.7 mm^2 (p<0.05 compared to controls, FIG. 1) (7). In the group of 8 animals treated with peptide SYSMEHFRWGKPV (1 mg/kg) the area of gastric lesions was 5.9±8 mm^2 (p<0.05 compared to controls, FIG. 1) (7). In the group of 8 animals treated with peptide YGGFM (10 mg/kg) the area of gastric lesions was 139.4±36.1 mm^2 (p<0.05 compared to controls, FIG. 1) (7). The combination of peptides SYSMEHFRWGKPV and YGGFM that provided best cytoprotective effect is patented under the name KOMET.
FIG. 1 defines the cytoprotective effects of the bioactive peptide fragments SYSMEHFRWGKPV and YGGFM of the pro-opiomelanocortin molecule, and their combination KOMET, in the model of the ethanol induced gastric lesions in rats.
FIG. 1. […]

| Substance | area of gastric lesions (1 mg/kg) [mm^2] | area of gastric lesions (10 mg/kg) [mm^2] |
| --- | --- | --- |
| SYSMEHFRWGKPV | 5.9±8 |  |
| YGGFM |  | 139.4±36.1 |
